Laboratory results from ChEMBL document CHEMBL1143926, “Synthesis of novel analogues of (+)-varitriol via olefin cross-metathesis reaction” (Bioorg Med Chem Lett, 2008).
Calls of active or inactive are those of the source. No cut-off for these calls is given here.

Experiments:
[1] = tested on: A549; assay: Cytotoxicity against human A549 cells after 24 hrs by MTT assay; type: functional, cell-based
[2] = Cytotoxicity against mouse RAW2647 cells after 24 hrs by MTT assay; type: cell-based, RAW264.7; conditions: for Activity: raw264.7, 24 h; for GI50 at 24 h: RAW2647 cells
[3] = tested on: HT-29; assay: Cytotoxicity against human HT29 cells after 24 hrs by MTT assay; type: functional
[4] = tested on: SNB-75; assay: Cytotoxicity against human SNB75 cells; type: functional
[5] = tested on: COLO 205; assay: Cytotoxicity against human COLO205 cells; type: functional
[6] = tested on: RXF 393; assay: Cytotoxicity against human RXF393 cells; type: functional
[7] = tested on: T47D; assay: Cytotoxicity against human T47D cells; type: functional
[8] = tested on: DU-145; assay: Cytotoxicity against human DU145 cells; type: functional
[9] = tested on: SNB-19; assay: Cytotoxicity against human SNB19 cells; type: functional
[10] = tested on: OVCAR-5; assay: Cytotoxicity against human OVCAR5 cells; type: functional
[11] = tested on: CCRF-CEM; assay: Cytotoxicity against human CCRF-CEM cells; type: functional
[12] = tested on: HL-60; assay: Cytotoxicity against human HL60 cells; type: functional

SMILES | Activity [1] | GI50 [3] | GI50 at 24 h [2] | other results
COc1cc(/C=C/[C@H]2O[C@@H]3OC(C)(C)O[C@@H]3[C@H]2O)cc(OC)c1 | inactive | 20 10^-4 M | – | Activity [2]: Not Active
COc1ccc(/C=C/[C@H]2OC(OC)[C@@H]3OC(C)(C)O[C@H]23)cc1 (stereo not given in full) | inactive | 4.7 10^-4 M | 696 µM | –
COc1cccc(/C=C/[C@H]2OC(OC)[C@@H]3OC(C)(C)O[C@H]23)c1 (stereo not given in full) | inactive | – | – | Activity [2]: Not Active; Activity [3]: inactive
COc1cccc(/C=C/[C@H]2O[C@@H]3OC(C)(C)O[C@@H]3[C@H]2O)c1 | inactive | 17.5 10^-4 M | 671 µM | –
COc1cc(/C=C/[C@H]2OC(OC)[C@@H]3OC(C)(C)O[C@H]23)ccc1O (stereo not given in full) | inactive | 13.2 10^-4 M | 835 µM | –
COc1cc(/C=C/[C@H]2OC(OC)[C@@H]3OC(C)(C)O[C@H]23)cc2c1OCO2 (stereo not given in full) | inactive | 14 10^-4 M | 462 µM | –
COc1cccc(/C=C/C2OC(C)C(O)C2O)c1CO (racemic) [(+/-)-VARITRIOL] | – | – | – | GI50 [4]: 0.244 µM; GI50 [5]: 95.9 µM; GI50 [6]: 0.163 µM; GI50 [7]: 0.21 µM; GI50 [8]: 1.1 µM; GI50 [9]: 91.3 µM; GI50 [10]: 68.2 µM; GI50 [11]: 26 µM; GI50 [12]: 25.2 µM
COc1cc(/C=C/[C@H]2OC(OC)[C@@H]3OC(C)(C)O[C@H]23)cc(OC)c1 (stereo not given in full) | inactive | – | 541 µM | Activity [3]: inactive
